In the supplement of paper PMC10307832:

Experiments:
Test in all cases: relative viability (nuclei count vs DMSO), 5 days (fraction); higher = more cells survive
[1] = compound: CC1CC(=O)N(C2=CN=C(N=C2N1C3CCCC3)NC4=C(C=C(C=C4)C(=O)NC5CCN(CC5)C)OC)C [NPK76-II-72-1] + COc1cc2c(Oc3ccc(NC(=O)C4(C(=O)Nc5ccc(F)cc5)CC4)cc3F)ccnc2cc1OCCCN1CCOCC1 [Foretinib] (partner 0.25 µM)
How it was run: (§1)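 For relative viability, nuclei counts in treated wells were divided by those in vehicle wells. Lung cancer cell lines had been pin-tool dosed in 1536-well plates the day after seeding and cultured for 5 days, then fixed and stained in one step (final 0.05% Triton X-100, 1% formaldehyde, 1 ug/ml Hoechst) and imaged at 4×. Doses were one drug alone or a fixed anchor-drug dose plus five library-drug doses (not always all listed) in √10 steps, and values are duplicate-plate medians.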

BI-2536 + AZD7762 = compound: CC[C@@H]1C(=O)N(C)c2cnc(Nc3ccc(C(=O)NC4CCN(C)CC4)cc3OC)nc2N1C1CCCC1 [BI-2536] + NC(=O)Nc1cc(-c2cccc(F)c2)sc1C(=O)N[C@H]1CCCNC1 [AZD7762] (partner 0.2 µM)
How it was run: as §1

BI-2536 + OSI-027 = compound: CC[C@@H]1C(=O)N(C)c2cnc(Nc3ccc(C(=O)NC4CCN(C)CC4)cc3OC)nc2N1C1CCCC1 [BI-2536] + COc1cccc2cc(-c3nc([C@H]4CC[C@H](C(=O)O)CC4)n4ncnc(N)c34)[nH]c12 [OSI-027] (partner 0.5 µM)
How it was run: as §1

[2] = compound: CC1CC(=O)N(C2=CN=C(N=C2N1C3CCCC3)NC4=C(C=C(C=C4)C(=O)NC5CCN(CC5)C)OC)C [NPK76-II-72-1] + CS(=O)(=O)CCNCc1ccc(-c2ccc3ncnc(Nc4ccc(OCc5cccc(F)c5)c(Cl)c4)c3c2)o1 [Lapatinib] (partner 2 µM)
How it was run: as §1

| Cell Line | relative viability ([1]; first compound 0.01 µM) | relative viability ([1]; first compound 0.03162 µM) | relative viability ([1]; first compound 0.1 µM) | relative viability ([1]; first compound 0.3162 µM) | relative viability ([1]; first compound 1 µM) | relative viability (BI-2536 + AZD7762; first compound 0.01 µM) | relative viability (BI-2536 + AZD7762; first compound 0.03162 µM) | relative viability (BI-2536 + AZD7762; first compound 0.1 µM) | relative viability (BI-2536 + AZD7762; first compound 0.3162 µM) | relative viability (BI-2536 + AZD7762; first compound 1 µM) | relative viability (BI-2536 + OSI-027; first compound 0.01 µM) | relative viability (BI-2536 + OSI-027; first compound 0.03162 µM) | relative viability (BI-2536 + OSI-027; first compound 0.1 µM) | relative viability (BI-2536 + OSI-027; first compound 0.3162 µM) | relative viability (BI-2536 + OSI-027; first compound 1 µM) | relative viability ([2]; first compound 0.01 µM) | relative viability ([2]; first compound 0.03162 µM) | relative viability ([2]; first compound 0.1 µM) | relative viability ([2]; first compound 0.3162 µM) | relative viability ([2]; first compound 1 µM) |
| --- | --- | --- | --- | --- | --- | --- | --- | --- | --- | --- | --- | --- | --- | --- | --- | --- | --- | --- | --- | --- |
| NCI-H441 | 0.931 | 1.09 | 0.785 | 0.823 | 1.16 | 0.977 | 1.21 | 0.228 | 0.174 | 0.21 | 0.449 | 0.42 | 0.222 | 0.226 | 0.266 | – | – | – | – | – |
| NCI-H520 | 0.648 | 0.854 | 0.674 | 0.867 | 0.794 | – | – | – | – | – | 0.277 | 0.289 | 0.195 | 0.292 | 0.2 | 0.735 | 0.85 | 0.912 | 0.857 | 0.841 |
| NCI-H522 | – | – | – | – | – | 0.826 | 0.879 | 0.944 | 0.302 | 0.365 | 0.752 | 0.72 | 0.445 | 0.399 | 0.372 | – | – | – | – | – |
| NCI-H661 | 0.997 | 1.01 | 1.03 | 0.909 | 1.07 | – | – | – | – | – | 0.697 | 0.379 | 0.35 | 0.208 | 0.209 | 0.398 | 0.532 | 0.562 | 0.473 | 0.513 |
| NCI-H1299 | 1.11 | 1.12 | 1.2 | 1.07 | 1.03 | – | – | – | – | – | – | – | – | – | – | 0.949 | 1.01 | 0.957 | 0.961 | 0.954 |
| NCI-H1563 | 0.84 | 0.875 | 0.933 | 0.923 | 0.845 | – | – | – | – | – | 0.811 | 0.792 | 0.704 | 0.535 | 0.541 | 0.976 | 1.03 | 0.946 | 0.942 | 1.02 |
| NCI-H1623 | 0.836 | 0.872 | 0.914 | 0.566 | 0.998 | – | – | – | – | – | 0.433 | 0.392 | 0.39 | 0.233 | 0.294 | – | – | – | – | – |
| NCI-H1648 | – | – | – | – | – | 0.767 | 0.775 | 0.432 | 0.332 | 0.224 | 0.258 | 0.25 | 0.233 | 0.203 | 0.24 | – | – | – | – | – |
| NCI-H1650 | 1.16 | 1.06 | 0.966 | 0.943 | 1.37 | – | – | – | – | – | 0.636 | 0.564 | 0.169 | 0.18 | 0.159 | 0.859 | 0.756 | 0.912 | 0.835 | 0.86 |
| NCI-H1703 | 0.363 | – | 0.316 | 0.35 | 0.343 | 0.141 | 0.174 | 0.0928 | 0.0808 | 0.0722 | – | – | – | – | – | 1.16 | 1.2 | 1.21 | 1.05 | 1.2 |
| NCI-H1792 | – | – | – | – | – | 0.704 | 0.692 | 0.415 | 0.0392 | 0.0281 | 0.818 | 0.758 | 0.678 | 0.591 | 0.395 | 0.894 | 0.965 | 0.923 | 0.964 | 1.01 |
| NCI-H2009 | 0.843 | 1.25 | 1.22 | 1.21 | 1.23 | – | – | – | – | – | 0.613 | 0.543 | 0.259 | 0.173 | 0.154 | 0.961 | 1.09 | 0.888 | 0.774 | 1.15 |
| NCI-H2023 | 0.659 | 0.797 | – | 0.624 | 1.07 | – | – | – | – | – | 0.398 | 0.406 | 0.189 | 0.0915 | 0.0907 | 0.813 | 1.06 | 1.13 | 0.878 | 1.02 |
| NCI-H2228 | 0.845 | 1.07 | 0.794 | 0.914 | 0.832 | – | – | – | – | – | 0.576 | 0.437 | 0.141 | 0.124 | 0.26 | 0.88 | 1.04 | 1.13 | 1.15 | 0.874 |
| NCI-H2342 | 0.948 | 1.1 | 1.09 | 0.88 | 1.15 | – | 0.459 | 0.411 | 0.267 | 0.349 | 0.664 | 0.546 | 0.598 | 0.362 | 0.367 | – | – | – | – | – |
| SK-LU-1 | 0.814 | 0.83 | 0.879 | 0.833 | 0.893 | – | – | – | – | – | 0.341 | 0.278 | 0.198 | 0.172 | 0.146 | 0.897 | 0.867 | 0.96 | 0.776 | 1.08 |
| SK-MES-1 | 0.975 | 0.957 | 0.877 | 0.808 | 0.912 | – | – | – | – | – | 0.601 | 0.458 | 0.178 | 0.173 | 0.182 | 0.447 | 0.449 | 0.426 | 0.419 | 0.465 |
| SW 900 | 0.864 | 1.27 | 0.852 | 0.76 | 0.947 | 0.557 | 0.689 | 0.568 | 0.188 | 0.137 | 0.6 | 0.427 | 0.456 | 0.129 | 0.132 | – | – | – | – | – |
| SW 1573 | 0.997 | 1.02 | 0.914 | 0.963 | 0.824 | – | – | – | – | – | 0.681 | 0.44 | 0.133 | 0.0966 | 0.0839 | 1.03 | 1.09 | 1.04 | 1 | 1.16 |
